# “Also recorded” adds a separate entry of the source.
# Columns and labels:
# Water solubility = format: physicochemical
# [1] = system: collagen-induced arthritis; assay: Collagen-induced arthritis; format: in vivo, Wistar rat
# Procedure: Protocols were based on those described (Lin H S et al., Br J Pharmacol 2007, 150(7):862-72; Nishikawa M et al., Arthritis Rheum 2003, 48(9):2670-81). Female Wistar rats (200-250 g, n′ 14) were immunised on Day 0 with Bovine nasal collagen (200 μg, 50:50 0.05 M acetic acid and Freund's incomplete adjuvant, s.c. tail base). Sham animals received vehicle only (no collagen; 50:50 0.05 M acetic acid and Freund's incomplete adjuvant, s.c. tail base). Boosters of the same dose were given on Day 7. Daily oral dosage of PAR-2 antagonist 52 (10 mg/kg in olive oil, 500 μL, p.o. weight adjusted) or olive oil vehicle (arthritic control, and sham) began on Day 7. Paw thickness and width (as above), body weight, disease activity score and mechanical nociceptive thresholds were measured every second day from Day 10-28.
# Disease Activity Index (DAI) and mechanical hyperalgesia were assessed and qualitatively scored 0 to 4+. The DAI is based on multiple characteristic disease pathologies, incorporating changes in mobility, inflammation and discomfort/pain (maximum total score of 18). Plantar mechanical nociceptive thresholds were measured using Semmes Weinstein Von Frey Anaesthesiometers (Touch Test Sensory Evaluators, Stoelting, Ill., USA).
# Day 28 all rats were euthanised and hind paws fixed in 4% paraformaldehyde, decalcified and embedded in paraffin wax and cut at […]. Sections were stained with H&E for general tissue architecture, with Masson's Trichrome for collagen loss or with alcian blue/safranin-O for mast cells (42). Tissue macrophages were labeled using ED1 monoclonal antibody (for immature rat macrophage/monocytes, Serotec) using standard IHC techniques. Microscopic analysis and cell counts were made from multiple (>6) images/paw with aid of ImageJ 1.42q software.
# [2] = alcian blue/safranin-O staining
compound,measurement,setting,value
CC[C@H](C)[C@@H](NC(=O)[C@H](CC1CCCCC1)NC(=O)c1ccno1)C(=O)N1CCC2(C=Cc3ccccc32)CC1 [Compound 52],water solubility,Water solubility,not water soluble enough to administer i.v.
same,collagen-induced rat arthritis,[1]; 10 mg/kg/day p.o.,attenuated collagen-induced rat arthritis
same,lowered mechanical nociceptive threshold (mechanical hyperalgesia),"[1]; 10 mg/kg/day p.o., Day 28",prevented the mechanical hyperalgaesia; also recorded: removed
same,maximal hind paw swelling,"[1]; 10 mg/kg/day p.o., Day 28, change from baseline",25±9%
same,maximal DAI (disease activity index),"[1]; 10 mg/kg/day p.o., Day 28, maximum total score 18",1.6±0.9
same,animals affected by arthritic signs,"[1]; 10 mg/kg/day p.o., by Day 28",60%
same,degranulated mast cells of all mast cells,[1]; [2],less than 5%
same,inactive mast cells of all mast cells,[1]; [2],~80%
same,collagen loss (Masson's Trichrome),[1]; compared to CIA-controls,significantly reduced collagen loss
same,"histopathological changes (H&E, tibia-talus joints)",[1]; daily administration,almost completely prevented
same,arthritic-like up regulation of ED1-macrophages,"[1]; rat, in vivo",prevented

# Reference: patent US9868763B2, “Modulators of protease activated receptors” (The University of Queensland, priority 2011, dated 2018)
